Read-outs that look alike come from different tables or passages of the source.
Experiments:
MiaPaCa-2 cells [1] = test: Cell proliferation (cell confluence), IncuCyte Live-Cell Analysis System; type: cell-based, human; settings: for IC50: Homo sapiens; for Cell confluence (% of control): control ~90% confluence
How it was run: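 MiaPaCa-2 cells in DMEM with 10% FBS, plated at 1,000 cells/well in triplicate and adhered overnight, then treated with Mito-PEG-ATO analogs. Confluence imaged label-free over several days, increase in percent confluence serving as proliferation surrogate.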

A549 cells = test: as above; type: cell-based; settings: Homo sapiens, A549, read-out: IC50, inhibition of A549 cell proliferation
Experimental: (§1) The following cell lines were obtained from the American Type Culture Collection (Manassas, VA), where they were regularly authenticated: MiaPaCa-2 (ATCC Cat# CRL-1420, human pancreatic cancer cells), U87MG (ATCC Cat# HTB-14, human brain cancer cells), A549 (ATCC Cat# CCL-185, lung cancer cells), and HCT-116 (ATCC Cat# CCL-247, colon cancer cells). All cell lines were grown at 37 °C in 5% carbon dioxide. MiaPaCa-2 cells were maintained in Dulbecco's Modified Eagle Medium (Thermo Fisher Scientific, Waltham, MA; Cat# 11965) supplemented with 10% fetal bovine serum. U87MG, A549, and HCT-116 cells were maintained in RPMI 1640 medium (Thermo Fisher Scientific, Cat# 11875), supplemented with 10% fetal bovine serum. All cells were stored in liquid nitrogen and used within 20 passages after thawing.
(§2) The IncuCyte Live-Cell Analysis System was used to monitor cell proliferation[3],[33],[67]. As shown in previous publications[3],[67], this imaging system is probe-free and noninvasive, and enables continuous monitoring of cell confluence over several days. The increase in the percentage of cell confluence was used as a surrogate marker of cell proliferation. In a 96-well plate, cells were plated at 1,000 cells per well in triplicates and left to adhere overnight. Cells were then treated with Mito-PEG-ATO analogs, and the cell confluency was recorded over several days in the IncuCyte Live-Cell Analysis System.
(§3) Figure S7. Effects of Mito-PEG-ATO analogs on the proliferation of human lung cancer (A549) cells and human colon cancer (HCT-116) cells. (A) The effects of Mito-PEG5-ATO and ATO on the proliferation of A549 (left) or HCT-116 (right) cells were monitored in the IncuCyte Live-Cell Analysis system. The IncuCyte analyzer provides real-time updates on cell confluence, based on segmentation of high definition-phase contrast images. Representative cell images were shown as a segmentation mask illustrated in brown when control cells reached 90% confluence (vertical solid black line). (B) The IC50 values for A549 (left) or HCT-116 (right) cells were determined at the point at which control cells reached ~90% confluence (vertical solid black line). Relative cell confluence (control is taken as 100%) is plotted against concentration. Dashed lines represent the fitting curves used to determine the IC50 values as indicated. Data shown are the mean±SD.

HCT-116 cells = test: as above; type: cell-based; settings: Homo sapiens, HCT-116, read-out: IC50, inhibition of HCT-116 cell proliferation
Experimental: as §1, §2, §3

[2] = test system: mitochondrial respiration (OCR) in intact MiaPaCa-2 cells; test: Intact cell mitochondrial respiration (basal OCR), Seahorse XF-96; type: cell-based, human
How it was run: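 MiaPaCa-2 cells were treated 24 h with Mito-PEG-ATO analogs, and OCR was read on a Seahorse XF-96; basal respiration was taken in intact cells. For complex I, permeabilized cells received 10 mM pyruvate, 1.5 mM malate and 10 mM malonate; for complex III, 0.5 mM duroquinol, 1 µM rotenone and 10 mM malonate, both in mannitol/sucrose buffer. IC50 values were derived from the OCR data.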

MiaPaCa-2 cells [3] = test: Cell death by SYTOX Green staining, IncuCyte; settings: Mito-PEG5-ATO 0.04 µM, AZD-3965 200 µM, 72 h
U87MG cells = test: Cell proliferation (cell confluence), IncuCyte Live-Cell Analysis System; type: cell-based, human; settings: Mito-PEG5-ATO 0.15 µM, AZD-3965 600 µM
Experimental: as §1
as §2, with “The increase in the percentage of cell confluence was used as a surrogate marker of cell proliferation. In a 96-well plate, cells were plated at 1,000 cells per well in triplicates and left to adhere overnight.” left out
Figure S4. […] (a) Effects of Mito-PEG-ATO analogs on the proliferation of U87MG cells were monitored in the IncuCyte Live-Cell Analysis System. […]

[4] = target: mitochondrial complex I (MiaPaCa-2 cells) (Homo sapiens, UniProt O75251+O75306+P03886); test: Complex I-dependent oxygen consumption in permeabilized cells, Seahorse XF-96; type: cell-based; settings: 24 h, with Mito-PEG5-ATO
Chain of mitochondrial complex I (MiaPaCa-2 cells) (O75306 34-463): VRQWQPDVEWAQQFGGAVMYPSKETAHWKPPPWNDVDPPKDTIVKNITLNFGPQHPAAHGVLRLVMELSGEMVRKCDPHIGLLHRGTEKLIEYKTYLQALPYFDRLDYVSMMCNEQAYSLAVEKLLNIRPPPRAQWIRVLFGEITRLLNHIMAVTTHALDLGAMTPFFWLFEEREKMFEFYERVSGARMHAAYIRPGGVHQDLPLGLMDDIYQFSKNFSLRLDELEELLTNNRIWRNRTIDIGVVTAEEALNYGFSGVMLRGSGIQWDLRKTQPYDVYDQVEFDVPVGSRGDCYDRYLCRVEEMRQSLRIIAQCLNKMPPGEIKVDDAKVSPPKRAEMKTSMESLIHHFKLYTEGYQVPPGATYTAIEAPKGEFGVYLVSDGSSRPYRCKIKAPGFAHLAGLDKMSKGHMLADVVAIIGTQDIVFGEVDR
Chain of mitochondrial complex I (MiaPaCa-2 cells) (O75251 39-213): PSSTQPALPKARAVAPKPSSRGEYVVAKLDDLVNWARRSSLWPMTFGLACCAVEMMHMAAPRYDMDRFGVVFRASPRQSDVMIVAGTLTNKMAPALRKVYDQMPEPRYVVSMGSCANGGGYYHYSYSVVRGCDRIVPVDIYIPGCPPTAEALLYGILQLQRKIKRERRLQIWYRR
Chain of mitochondrial complex I (MiaPaCa-2 cells) (P03886 whole entry): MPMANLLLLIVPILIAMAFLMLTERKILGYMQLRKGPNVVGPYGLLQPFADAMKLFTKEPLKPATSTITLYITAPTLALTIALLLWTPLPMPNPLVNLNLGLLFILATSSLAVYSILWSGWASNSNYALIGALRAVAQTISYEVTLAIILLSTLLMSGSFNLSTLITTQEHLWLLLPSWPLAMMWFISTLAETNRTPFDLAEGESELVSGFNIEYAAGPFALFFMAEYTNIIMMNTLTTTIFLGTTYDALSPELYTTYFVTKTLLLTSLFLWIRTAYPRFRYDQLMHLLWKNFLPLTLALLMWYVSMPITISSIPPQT
Experimental: Mitochondrial oxygen consumption was measured using the Seahorse XF-96 Extracellular Flux Analyzer (Agilent, North Billerica, MA)[3],[33],[67],[68]. To determine the intact cell mitochondrial function of MiaPaCa-2 cells in response to Mito-PEG-ATO analogs, we used the bioenergetic function assay previously described[2],[3]. […] From these measurements, indices of mitochondrial function were determined as previously described[2],[3]. For mitochondrial complex activities assays, after cells were treated with Mito-PEG-ATO analogs for 24 h, the OCR-based assessment of mitochondrial complex activities was carried out on acutely permeabilized cells in the presence of different mitochondrial substrates, i.e., pyruvate/malate for complex I and duroquinol for complex III[3],[32],[34],[69]. Rotenone, malonate, and antimycin A (Sigma-Aldrich, St. Louis, MO) were used as specific inhibitors of mitochondrial complexes I, II, and III, respectively. Briefly, cells that were intact after treatments were immediately permeabilized using the Seahorse XF Plasma Membrane Permeabilizer (Agilent). The mitochondrial complex I-induced OCR was assayed in mannitol and sucrose buffer[69] containing 10 mM pyruvate and 1.5 mM malate (substrates for complex I) and 10 mM malonate (which inhibits complex II activities). […] The IC50 values were determined as previously reported.

O=C1C(OCCOCCOCCOCCOCC[P+](c2ccccc2)(c2ccccc2)c2ccccc2)=C([C@H]2CC[C@H](c3ccc(Cl)cc3)CC2)C(=O)c2ccccc21.[Br-] [Mito-PEG5-ATO, [14-((3-(trans-4-(4-chlorophenyl)cyclohexyl)-1,4-dioxo-1,4-dihydronaphthalen-2-yl)oxy)-3,6,9,12-tetraoxatetradecyl]triphenylphosphonium bromide]
IC50 (MiaPaCa-2 cells [1]; MIA PaCa-2, read-out: IC50, antiproliferative): 0.038 µM | Cell confluence (% of control) (MiaPaCa-2 cells [1]; MiaPaCa-2 cells, 0.003 µM): 94.98 % of control | Cell confluence (% of control) (MiaPaCa-2 cells [1]; MiaPaCa-2 cells, 0.01 µM): 93.81 % of control | Cell confluence (% of control) (MiaPaCa-2 cells [1]; MiaPaCa-2 cells, 0.03 µM): 74.87 % of control | Cell confluence (% of control) (MiaPaCa-2 cells [1]; MiaPaCa-2 cells, 0.05 µM): 41.88 % of control | Cell confluence (% of control) (MiaPaCa-2 cells [1]; MiaPaCa-2 cells, 0.1 µM): 7.64 % of control | Cell confluence (% of control) (MiaPaCa-2 cells [1]; MiaPaCa-2 cells, 0.2 µM): 4.52 % of control | Cell confluence (% of control) (MiaPaCa-2 cells [1]; MiaPaCa-2 cells, 0.3 µM): 4.07 % of control | Cell confluence (% of control) (MiaPaCa-2 cells [1]; MiaPaCa-2 cells, 0.5 µM): 3.75 % of control | Cell confluence (% of control) (MiaPaCa-2 cells [1]; MiaPaCa-2 cells, 1 µM): 3.53 % of control | Cell confluence (% of control) (MiaPaCa-2 cells [1]; MiaPaCa-2 cells, 3 µM): 2.64 % of control | Cell confluence (% of control) (MiaPaCa-2 cells [1]; MiaPaCa-2 cells, 10 µM): 2.40 % of control | IC50 (A549 cells): 0.11 µM | IC50 (HCT-116 cells): 0.14 µM | OCR (pmol/min/µg protein) ([2]; 0.003 µM, 24 h treatment, intact MiaPaCa-2 cells, baseline OCR, mean, n=4): 13.36 pmol/min/µg protein | OCR (basal, intact cell mitochondrial respiration) ([2]; 0.01 µM, 24 h treatment, intact MiaPaCa-2 cells, mean, n=4): 12.51 pmol/min/µg protein | OCR (basal, intact cell mitochondrial respiration) ([2]; 0.03 µM, 24 h treatment, intact MiaPaCa-2 cells, mean, n=4): 9.91 pmol/min/µg protein | OCR (basal, intact cell mitochondrial respiration) ([2]; 0.05 µM, 24 h treatment, intact MiaPaCa-2 cells, mean, n=4): 9.30 pmol/min/µg protein | OCR (basal, intact cell mitochondrial respiration) ([2]; 0.075 µM, 24 h treatment, intact MiaPaCa-2 cells, mean, n=4): 8.05 pmol/min/µg protein | OCR (basal, intact cell mitochondrial respiration) ([2]; 0.1 µM, 24 h treatment, intact MiaPaCa-2 cells, mean, n=4): 5.43 pmol/min/µg protein | OCR (basal, intact cell mitochondrial respiration) ([2]; 0.3 µM, 24 h treatment, intact MiaPaCa-2 cells, mean, n=4): 0.36 pmol/min/µg protein | OCR (basal, intact cell mitochondrial respiration) ([2]; 0.5 µM, 24 h treatment, intact MiaPaCa-2 cells, mean, n=4): 1.83 pmol/min/µg protein | OCR (basal, intact cell mitochondrial respiration) ([2]; 1 µM, 24 h treatment, intact MiaPaCa-2 cells, mean, n=4): 1.40 pmol/min/µg protein | OCR (basal, intact cell mitochondrial respiration) ([2]; 3 µM, 24 h treatment, intact MiaPaCa-2 cells, mean, n=4): 0.84 pmol/min/µg protein | OCR (basal, intact cell mitochondrial respiration) ([2]; 10 µM, 24 h treatment, intact MiaPaCa-2 cells, mean, n=4): 0.55 pmol/min/µg protein | IC50 ([2]; Homo sapiens, MIA PaCa-2, 24 h, read-out: IC50, inhibition of basal OCR in intact cells): 0.057 µM | Cell death / cell toxicity (SYTOX Green counts) (MiaPaCa-2 cells [3]): similarly low SYTOX Green counts

Cc1[nH]nc(C(F)(F)F)c1Cc1sc2c(c1C(=O)N1C[C@](C)(O)CO1)c(=O)n(C)c(=O)n2C(C)C [AZD-3965]
IC50 (MiaPaCa-2 cells [1]; MIA PaCa-2, read-out: IC50 (cell proliferation) without Mito-PEG5-ATO): 278 µM | Inhibition of cell proliferation in combination with Mito-PEG5-ATO (combination index) (MiaPaCa-2 cells [1]; MiaPaCa-2 cells, combined with Mito-PEG5-ATO): synergistic | % changes of IC50 with vs without Mito-PEG5-ATO (MiaPaCa-2 cells [1]; MiaPaCa-2 cells, heat map Fig. 7d): 52.5% | Inhibition of cell proliferation in combination with Mito-PEG5-ATO (U87MG cells): Synergistic inhibition | Effect on the decrease in complex I-induced oxygen consumption induced by Mito-PEG5-ATO [4]: Neither AZD-3965 nor V-9302 significantly affected

— paper PMC8948292, “Combining PEGylated mito-atovaquone with MCT and Krebs cycle redox inhibitors as a potential strategy to abrogate tumor cell proliferation” (Scientific Reports, 2022)
